In ChEMBL document CHEMBL1201862, “PubChem BioAssay data set” (2004) one finds AC50 and EC50 data, which are given here for 28 compounds.

The source made the active and inactive calls.

The AC50 is the midpoint of the concentration-response curve, whichever way the signal moves.

Assay [1] has as its target T1, Replicative DNA helicase DnaB (Mycobacterium tuberculosis, UniProt P9WMR3).
T1 sequence (P9WMR3 whole entry): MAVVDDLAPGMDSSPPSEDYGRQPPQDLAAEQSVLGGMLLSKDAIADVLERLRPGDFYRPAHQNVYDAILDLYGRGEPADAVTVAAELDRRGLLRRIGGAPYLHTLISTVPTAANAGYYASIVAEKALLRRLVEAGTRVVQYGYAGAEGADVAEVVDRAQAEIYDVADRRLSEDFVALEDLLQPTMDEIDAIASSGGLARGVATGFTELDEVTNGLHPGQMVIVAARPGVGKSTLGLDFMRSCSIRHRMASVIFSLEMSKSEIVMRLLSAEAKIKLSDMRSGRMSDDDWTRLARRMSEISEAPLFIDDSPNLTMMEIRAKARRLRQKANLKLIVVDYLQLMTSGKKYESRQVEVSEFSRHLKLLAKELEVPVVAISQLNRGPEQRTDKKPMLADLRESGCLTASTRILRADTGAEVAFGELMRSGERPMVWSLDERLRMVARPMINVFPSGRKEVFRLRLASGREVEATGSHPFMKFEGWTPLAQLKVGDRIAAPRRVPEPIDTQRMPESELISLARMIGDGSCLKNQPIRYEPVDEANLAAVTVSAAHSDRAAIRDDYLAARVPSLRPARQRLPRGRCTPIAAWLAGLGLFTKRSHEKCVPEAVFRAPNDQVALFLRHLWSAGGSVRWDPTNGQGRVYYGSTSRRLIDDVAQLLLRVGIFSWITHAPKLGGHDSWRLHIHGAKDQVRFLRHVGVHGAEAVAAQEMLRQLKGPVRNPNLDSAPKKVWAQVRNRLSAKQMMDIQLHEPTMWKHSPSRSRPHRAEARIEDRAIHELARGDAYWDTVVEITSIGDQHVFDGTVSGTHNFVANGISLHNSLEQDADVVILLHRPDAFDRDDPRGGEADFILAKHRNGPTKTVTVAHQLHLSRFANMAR
Nature of the assay: DnaB intein splicing inhibitors, dose response, biochemical, cell-free fluorescence (AID 449749). The format is functional.

The target of the next assay is T2, Protein RecA (Mycobacterium tuberculosis, UniProt P9WHJ3).
T2 sequence (P9WHJ3 whole entry): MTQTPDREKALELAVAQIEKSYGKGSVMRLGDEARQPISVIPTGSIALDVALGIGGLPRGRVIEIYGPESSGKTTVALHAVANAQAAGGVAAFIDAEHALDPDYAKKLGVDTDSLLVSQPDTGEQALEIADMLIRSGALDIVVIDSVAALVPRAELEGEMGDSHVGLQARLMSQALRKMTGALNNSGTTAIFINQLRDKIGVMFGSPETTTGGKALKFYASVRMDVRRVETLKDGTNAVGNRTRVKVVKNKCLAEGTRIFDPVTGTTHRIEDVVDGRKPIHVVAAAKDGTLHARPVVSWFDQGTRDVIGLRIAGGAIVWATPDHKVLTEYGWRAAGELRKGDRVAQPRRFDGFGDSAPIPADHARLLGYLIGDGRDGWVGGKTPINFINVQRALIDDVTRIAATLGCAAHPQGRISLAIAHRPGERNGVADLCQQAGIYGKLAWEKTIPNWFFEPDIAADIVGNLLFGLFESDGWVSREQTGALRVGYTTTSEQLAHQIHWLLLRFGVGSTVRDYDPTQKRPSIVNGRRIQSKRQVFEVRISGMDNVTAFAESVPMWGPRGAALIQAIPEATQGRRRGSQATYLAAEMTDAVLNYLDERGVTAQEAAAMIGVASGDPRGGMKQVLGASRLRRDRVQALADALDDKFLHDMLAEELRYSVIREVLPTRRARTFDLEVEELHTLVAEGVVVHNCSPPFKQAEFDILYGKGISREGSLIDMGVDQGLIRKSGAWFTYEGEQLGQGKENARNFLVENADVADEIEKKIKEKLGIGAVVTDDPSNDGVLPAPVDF
As to the kind of experiment: Fluorescence Cell-Free Homogeneous Dose Retest to Identify Inhibitors of RecA-Intein Splicing Activity. [Related pubchem assays (depositor defined):AID2097, AID2223, AID489010, AID492950]. It is filed as functional.

Assay [2] in a line: Luminescence Cell-Based Dose Retest to Confirm Inhibitors of Cancer Stem Cells. [Related pubchem assays (depositor defined):AID2717, AID2721]. The format is functional. The settings on record: Homo sapiens.
Assay [3] has as its target T3, Heat shock factor protein 1 (Mus musculus, UniProt P38532).
T3 sequence (P38532 whole entry): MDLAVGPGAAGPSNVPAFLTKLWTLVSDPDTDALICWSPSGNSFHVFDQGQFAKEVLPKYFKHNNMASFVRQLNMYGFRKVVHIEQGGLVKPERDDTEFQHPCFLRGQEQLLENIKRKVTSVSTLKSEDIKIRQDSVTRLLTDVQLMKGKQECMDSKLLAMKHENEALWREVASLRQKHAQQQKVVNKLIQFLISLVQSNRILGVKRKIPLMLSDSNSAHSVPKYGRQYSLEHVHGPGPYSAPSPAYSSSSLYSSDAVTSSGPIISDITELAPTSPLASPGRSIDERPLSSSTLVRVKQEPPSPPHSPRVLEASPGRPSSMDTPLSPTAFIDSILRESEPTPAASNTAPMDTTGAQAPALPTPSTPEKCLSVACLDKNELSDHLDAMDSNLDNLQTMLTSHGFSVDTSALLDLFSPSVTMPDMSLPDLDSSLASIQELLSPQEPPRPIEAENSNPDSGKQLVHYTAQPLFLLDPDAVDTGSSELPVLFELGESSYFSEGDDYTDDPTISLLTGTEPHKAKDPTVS
As to the kind of experiment: inhibition of MG132-induced HSE-luciferase signal, confirmation, cell-based, NIH3T3, luminescence, dose retest (AID 2382).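 Also: NIH3T3 fibroblasts with HSF1-driven luciferase reporter stressed by proteasome inhibitor MG132; luminescence from HSF1-driven luciferase expression after 8 hours of MG132 stress.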 The format is functional.

Assay [4] deals with Streptococcus sp. 'group A'. Nature of the assay: growth inhibition of control SK(-) GAS strain, dose response, counter-screen for streptokinase expression inhibitor project, luminescence, kanamycin, BacTiterGlo, confirmation (AID 1900). It is filed as functional, organism-based. (In general: The purpose of a counterscreen is to sort out artefacts and off-target activity.)
The test system of the next assay is Streptococcus. Nature of the assay: Group A Streptococcus viability loss, dose response, counter-screen for streptokinase expression inhibitor project, luminescence, BacTiterGlo (AID 1915).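 Also: potency for reduction of bacterial viability or growth.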 It is filed as functional, organism-based.
In the next assay the target is Cytochrome P450 3A4 (Homo sapiens, UniProt P08684).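 Also: CYP3A4 tested as one member of a cytochrome P450 panel screen.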
Assay [5] in a line: inhibitors of intracellular T. cruzi replication, confirmation, NIH3T3 host cells, beta-gal luminescence (AID 2044).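 Also: intracellular parasites grown in NIH/3T3 mouse fibroblasts as host cells; luminescent beta-galactosidase reporter signal from transgenic T. cruzi replicating inside host cells; inhibitors lower the luminescence signal.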 It is filed as functional, cell-based.
Assay [6] can be described thus: cytotoxicity toward NIH3T3 fibroblasts, dose response, counter-screen, cell-based, ATP luminescence, mouse fibroblasts (AID 2010).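 Also: cells exposed to compound for about 90 hours before reading.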 The format is functional.
The target in the next assay is Cytochrome P450 2D6 (Homo sapiens, UniProt P10635).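 Also: CYP2D6 member of a cytochrome P450 panel assay.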
Assay [7] deals with T4, Corticotropin-releasing factor receptor 2/Corticotropin-releasing factor-binding protein (Homo sapiens, UniProt P24387+Q13324).
T4 sequence (Q13324 whole entry): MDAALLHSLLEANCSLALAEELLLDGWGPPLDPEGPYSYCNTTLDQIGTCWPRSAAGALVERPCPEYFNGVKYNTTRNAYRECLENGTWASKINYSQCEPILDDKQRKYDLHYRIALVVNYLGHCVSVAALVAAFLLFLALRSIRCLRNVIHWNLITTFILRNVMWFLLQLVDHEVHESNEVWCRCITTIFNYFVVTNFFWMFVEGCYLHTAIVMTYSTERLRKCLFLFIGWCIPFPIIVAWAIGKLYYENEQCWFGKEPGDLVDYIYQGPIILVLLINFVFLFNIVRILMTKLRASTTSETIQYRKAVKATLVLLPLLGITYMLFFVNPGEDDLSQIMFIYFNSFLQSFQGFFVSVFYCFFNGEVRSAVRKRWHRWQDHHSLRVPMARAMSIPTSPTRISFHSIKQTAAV
T4 sequence (P24387 whole entry): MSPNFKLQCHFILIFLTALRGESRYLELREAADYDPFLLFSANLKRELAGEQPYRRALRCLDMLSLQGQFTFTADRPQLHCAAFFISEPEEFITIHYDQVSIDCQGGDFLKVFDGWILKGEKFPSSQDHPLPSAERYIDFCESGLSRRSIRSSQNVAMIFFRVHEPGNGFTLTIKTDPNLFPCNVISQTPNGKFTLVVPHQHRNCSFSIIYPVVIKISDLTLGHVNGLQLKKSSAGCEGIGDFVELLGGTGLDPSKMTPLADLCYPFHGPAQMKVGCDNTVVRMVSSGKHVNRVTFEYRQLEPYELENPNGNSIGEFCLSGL
As to the kind of experiment: activators of CRF receptor 2 with binding protein – uHTS hits, confirmation (AID 602473). It is filed as functional. The settings on record: read-out: EC50_Mean.

Cytochrome P450 3A4, sequence (P08684 whole entry): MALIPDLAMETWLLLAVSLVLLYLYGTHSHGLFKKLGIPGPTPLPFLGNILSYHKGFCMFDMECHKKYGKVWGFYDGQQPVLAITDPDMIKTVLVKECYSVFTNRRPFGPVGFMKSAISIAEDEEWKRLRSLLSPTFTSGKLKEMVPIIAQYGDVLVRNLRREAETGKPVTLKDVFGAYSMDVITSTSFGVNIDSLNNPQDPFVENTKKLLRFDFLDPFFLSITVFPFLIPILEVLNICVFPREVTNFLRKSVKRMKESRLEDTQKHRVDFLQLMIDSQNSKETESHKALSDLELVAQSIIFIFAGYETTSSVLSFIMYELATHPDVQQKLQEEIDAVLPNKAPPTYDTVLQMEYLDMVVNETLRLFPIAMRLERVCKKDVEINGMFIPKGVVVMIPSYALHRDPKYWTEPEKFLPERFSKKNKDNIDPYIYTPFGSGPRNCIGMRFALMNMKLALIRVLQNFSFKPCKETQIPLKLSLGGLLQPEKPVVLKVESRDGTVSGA
Cytochrome P450 2D6, sequence (P10635 whole entry): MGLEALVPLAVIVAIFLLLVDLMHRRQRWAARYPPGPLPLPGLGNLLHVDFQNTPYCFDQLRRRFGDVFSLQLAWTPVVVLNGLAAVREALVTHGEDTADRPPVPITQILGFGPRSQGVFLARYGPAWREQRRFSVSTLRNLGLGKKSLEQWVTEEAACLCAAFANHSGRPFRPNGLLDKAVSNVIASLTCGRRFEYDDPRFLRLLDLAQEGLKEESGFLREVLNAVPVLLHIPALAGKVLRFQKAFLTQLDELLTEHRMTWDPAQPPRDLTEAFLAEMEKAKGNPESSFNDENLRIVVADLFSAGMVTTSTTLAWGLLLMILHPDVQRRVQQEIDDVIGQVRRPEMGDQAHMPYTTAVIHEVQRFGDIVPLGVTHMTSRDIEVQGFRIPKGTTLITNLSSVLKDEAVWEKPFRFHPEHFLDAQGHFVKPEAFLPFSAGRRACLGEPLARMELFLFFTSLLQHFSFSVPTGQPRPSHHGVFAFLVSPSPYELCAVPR

For the compound `CCOC(=O)c1nnn(-c2nonc2-n2cccc2)c1CCl`, the AC50 in [1] was 5.35 µM (active). Also, at Protein RecA, the EC50 was 1.42 µM (active).
As for `CCn1c(=O)c(C(=O)NCCc2ccccc2)c(O)c2ccccc21`, in assay [2], the AC50 was 6.91 µM (active).
On the same count and under the same terms, then `FC(F)Oc1ccc(-c2csc(NNC3=NCCCCC3)n2)cc1`, with 1.77 µM (active).
As to `CC(C)(C)c1ccc(C(=O)NC(=S)Nc2nc3c(s2)CCCC3)cc1`, the AC50 in [2] is 2.02 µM (active). The EC50 in [3] was 0.192 µM (active).
For `Cc1cccc(C(=O)OCC(=O)Nc2nnc(-c3ccccc3)o2)c1O`, the EC50 in assay [4] was 3.11 µM (active); in the assay with Streptococcus it was 4.74 µM (active).
On to `O=S(=O)(NC1CC(NS(=O)(=O)OCC(Cl)(Cl)Cl)C2CCCCC12)OCC(Cl)(Cl)Cl` (centres undefined), for which the AC50 in [2] was 1.31 µM (active).
Consider `Cc1nc2cnc(OCc3ccccc3)nc2n(CCc2ccccc2)c1=O`, for which, on Cytochrome P450 3A4, the AC50 was 25.1 µM (inconclusive).
With `O=C1c2cc(Br)ccc2N(Cc2ccc(Br)cc2)S(=O)(=O)C1c1cc(Cl)c(Cl)cc1[N+](=O)[O-]` (centres undefined), the AC50 in assay [2] was 1.06 µM (active).
With `CCCC1CC(C(=O)NC(C(C)Cl)C2OC(SC)C(O)C(O)C2O)N(C)C1` (centres undefined), the EC50 (in [4]; in the assay with Streptococcus) was < 0.06 µM (active) throughout.
Turning to `CCCCOc1ccc(C2C3CN(C(=O)OCC)CC=C3C(C#N)=C(N)C2(C#N)C#N)cc1OC` (centres undefined), the AC50 in [1] is > 380 µM (inactive). Besides, on Protein RecA, the EC50 was 29.8 µM (active).
With `COc1ccc(NC(=O)c2ccc(COc3ccccc3Br)o2)cc1OC`, the AC50 in [2] is 1.69 µM (active).
`O=c1[nH]cc(NCCc2ccccc2)c(=O)[nH]1`: in [1], the AC50 is > 380 µM (inconclusive). Besides, the EC50 at Protein RecA is 10.1 µM (active).
On to `COc1ccc(NC(=S)N(CCc2nc3cc(C)c(C)cc3[nH]2)Cc2cccnc2)cc1`, for which, on Cytochrome P450 3A4, the AC50 is 0.891 µM (inconclusive).
On to `Cc1[nH]c2ccc(F)cc2c1CCN(Cc1cccnc1)C(S)=Nc1ccc(F)cc1`, for which the figures for the EC50 (in assay [5]; in assay [6]; at Protein RecA) were 0.705 µM (active), > 30 µM (not active) and 93.4 µM (active), respectively. For the same compound, the AC50 in assay [1] was 17.2 µM (active).
`Cc1ccc(NC(=O)C2C3CCCC2C3c2ccccc2)cc1C` (centres undefined): the AC50 on Cytochrome P450 3A4 was 8.91 µM (inconclusive).
On the same count and under the same terms, then `O=[N+]([O-])c1cc(Cl)cc2c1nc(NCCO)c1ccccc12`, with 3.16 µM (inconclusive).
For `CC(C)CN1CCCC2(CCN(C(=O)Oc3ccccc3)CC2)C1`, the results for the AC50 on Cytochrome P450 3A4 and on Cytochrome P450 2D6 were 25.1 µM (inconclusive) and 20 µM (inconclusive), respectively.
As to `CCOC(=O)Cn1cc(/C=N/NC(=O)CC#N)c2ccccc21`, in assay [1], the AC50 was 61.1 µM (active). At Protein RecA, the EC50 was 6.38 µM (active).
As to `C/C=C(/C)C(=O)OC1CC(C)(C)C[C@H]2C3=CC[C@@H]4[C@@]5(C)CCC(O[C@@H]6O[C@@H](C(=O)O)[C@@H](O)C(O[C@@H]7OC[C@H](O)[C@@H](O)[C@@H]7O[C@@H]7OC(CO)C(O)[C@@H](O)[C@@H]7O)C6O[C@@H]6OC(CO)C(O)C(O)C6O)[C@@](C)(CO)[C@@H]5CC[C@]4(C)[C@]3(C)CC(O)[C@@]12CO` (some centres undefined), the EC50 in assay [7] is 5.49 µM (active).
For the compound `COC(=O)Cc1n[nH]c2c1C(c1c[nH]c3ccccc13)C(C#N)=C(N)O2` (centres undefined), the AC50 in assay [1] was > 380 µM (inactive). For the same compound, the EC50 on Protein RecA is > 380 µM (inconclusive).
As for `Cn1cc(-c2nc3cncnc3n(C3CC3)c2=O)c2ccccc21`, the AC50 at Cytochrome P450 3A4 was 7.94 µM (inconclusive).
Consider `CC1(c2ccc(OC(F)F)cc2)NC(=O)N(CC(=O)Nc2cccc(F)c2)C1=O` (centres undefined), for which, in assay [7], the EC50 was 4.52 µM (active).
On to `O=C1CC/[N+](=C\c2ccccc2)[N-]1`, for which, in assay [1], the AC50 is 19.4 µM (active). The EC50 on Protein RecA is 4.58 µM (active).
For the compound `CC(=O)OCC1=C(C(=O)O)N2C(=O)C(NC(=O)C(C)Cn3cc(Cl)cn3)C2SC1` (centres undefined), the EC50 in assay [4] was 1.39 µM (active); in the assay with Streptococcus, 1.27 µM (active).
For the compound `Fc1cccc(C2NC(S)=NC3=C2N2CCC3CC2)c1` (centres undefined), the AC50 at Cytochrome P450 3A4 was 25.1 µM (inconclusive); at Cytochrome P450 2D6, 3.16 µM (inconclusive).
Turning to `COC(=O)c1c(-c2ccc(OC)cc2)oc2ccc(-c3cc(OC)c(OC)c(OC)c3)cc12`, the AC50 in assay [2] was 5.85 µM (active).
In the case of `Cc1ccccc1CS(=O)(=O)c1snnc1C`, the AC50 in assay [1] is > 380 µM (inactive). At Protein RecA, the EC50 was > 380 µM (inactive).
For `CCNc1ncc2nc(-c3cn(C)c4ccccc34)c(=O)n(CCC#N)c2n1`, the AC50 on Cytochrome P450 3A4 was 12.6 µM (inconclusive).
